In brackets after ≈: the same amount, converted by molar mass. Read-outs that look alike come from different tables or passages of the source.
How the values were obtained:
Candida albicans = settings: 50% growth inhibition, range = minimum and maximum of multiple assays; for MIC C. albicans 24433: strain 24433; for MIC C. albicans 90028: strain 90028
A. flavus ATCC 204304 = assay: Broth microdilution antifungal susceptibility, NCCLS M38-A; type: cell-based, Aspergillus flavus; settings: minimal concentration inhibiting >95% growth, average of at least two assays (except I-l and I-x)
A. fumigatus ATCC 204305 = assay: as above; type: cell-based, Aspergillus fumigatus; settings: minimal concentration inhibiting >95% growth, average of at least two assays (except I-l and I-x)
S. apiospermum = assay: as above; type: cell-based, Scedosporium apiospermum; settings: for MIC: Scedosporium apiospermum, 50% growth inhibition, range = minimum and maximum of multiple assays
Fusarium solani = assay: as above; type: cell-based; settings: strain 96-1, 50% growth inhibition, range = minimum and maximum of multiple assays
Cryptococcus neoformans = assay: as above; settings: for MIC C. neoformans 97-14: strain 97-14; for MIC C. neoformans 97-14 / MIC C. neoformans 11239 / MIC C. neoformans 11240: 50% growth inhibition, range = minimum and maximum of multiple assays; for MIC C. neoformans 11239: strain 11239; for MIC C. neoformans 11240: strain 11240; for MIC: Cryptococcus neoformans
C. immitis = assay: microbe, parasite or virus in culture; type: cell-based, Coccidioides immitis; settings: Coccidioides immitis
C. posadasii = assay: microbe, parasite or virus in culture; type: cell-based, Coccidioides posadasii; settings: Coccidioides posadasii
Blastomyces dermatitidis = assay: Broth microdilution antifungal susceptibility, NCCLS M38-A; type: cell-based; settings: for MIC: Blastomyces dermatitidis
[1] = system: Trichophyton mentagrophytes; assay: Dermatophyte broth microdilution, NCCLS M38-A; type: cell-based
Microsporum canis = assay: Dermatophyte broth microdilution, NCCLS M38-A; type: cell-based
Epidermophyton floccosum = assay: Dermatophyte broth microdilution, NCCLS M38-A; type: cell-based
Trichophyton rubrum = assay: Dermatophyte broth microdilution, NCCLS M38-A; type: cell-based
[2] = system: Trichophyton interdigitale; assay: Dermatophyte broth microdilution, NCCLS M38-A; type: cell-based
Histoplasma capsulatum = type: cell-based
Microsporum gypseum = assay: Dermatophyte broth microdilution, NCCLS M38-A; type: cell-based

Compound: (5S,6R)-5-(N-(4-imidazolyl)methyl-methylamino)-6-hydroxypolyangioic acid [I-h]
- MIC C. albicans 24433 (Candida albicans): >32 µg/mL
- MIC C. albicans 90028 (Candida albicans): >32 µg/mL
- MIC0 A. flavus ATCC 204304 (A. flavus ATCC 204304): 1.0 µg/mL
- MIC0 A. fumigatus ATCC 204305 (A. fumigatus ATCC 204305): 2.1 µg/mL
- MIC S. apiospermum 94-54 (S. apiospermum): >16 µg/mL
- MIC S. apiospermum 98-38 (S. apiospermum): >16 µg/mL
- MIC S. apiospermum 98-89 (S. apiospermum): 0.125 to 0.25 µg/mL
- MIC F. solani 96-1 (Fusarium solani): >16 µg/mL
- MIC C. neoformans 97-14 (Cryptococcus neoformans): 0.5 µg/mL
- MIC C. neoformans 11239 (Cryptococcus neoformans): 0.25 µg/mL
- MIC C. neoformans 11240 (Cryptococcus neoformans): 0.25 µg/mL

Compound: CC[C@H]1O[C@@H](C(C)C[C@H](C)/C=C/[C@H]2[C@@H](C)[C@@H]2/C=C/[C@@H]2O[C@H](CC(=O)O)CC(O)[C@H]2O)CC=C1C (stereo partly drawn) [Ambruticin S, (5S,6R)-5,6-dihydroxypoly-angioic acid, reference compound]
- MIC (C. immitis; read-out: MIC C. immitis RMS 2281): 2 µg/mL (≈ 4.2 µM)
- MIC (C. immitis; read-out: MIC C. immitis RS): 2 µg/mL (≈ 4.2 µM)
- MIC (C. immitis; read-out: MIC C. immitis S46): 4 µg/mL (≈ 8.39 µM)
- MIC (C. posadasii; read-out: MIC C. posadasii C735): 4 µg/mL (≈ 8.39 µM)
- MIC (C. posadasii; read-out: MIC C. posadasii RMSCC 2127): 2 µg/mL (≈ 4.2 µM)
- MIC (C. posadasii; read-out: MIC C. posadasii Silveria): 2 µg/mL (≈ 4.2 µM)
- MIC (A. flavus ATCC 204304; Aspergillus flavus, ATCC204304, read-out: MIC0 A. flavus ATCC 204304): 28.4 µg/mL (≈ 59.7 µM)
- MIC (A. fumigatus ATCC 204305; Aspergillus fumigatus, ATCC204305, read-out: MIC0 A. fumigatus ATCC 204305): 29.3 µg/mL (≈ 61.5 µM)
- MIC (S. apiospermum; strain 94-54, read-out: MIC S. apiospermum 94-54): > 32 µg/mL
- MIC (S. apiospermum; strain 98-38, read-out: MIC S. apiospermum 98-38): > 32 µg/mL
- MIC (S. apiospermum; strain 98-89, read-out: MIC S. apiospermum 98-89): 4 µg/mL (≈ 8.39 µM)
- MIC (Blastomyces dermatitidis; read-out: MIC0 Blastomyces dermatitidis R-35629): 0.125 µg/mL (≈ 0.262 µM)
- MIC (Blastomyces dermatitidis; strain 04-2167, >95% growth inhibition, read-out: MIC0 Blastomyces dermatitidis 04-2167): 0.125 µg/mL (≈ 0.262 µM)
- MIC (Blastomyces dermatitidis; strain 04-2508, >95% growth inhibition, read-out: MIC0 Blastomyces dermatitidis 04-2508): 0.25 µg/mL (≈ 0.524 µM)
- MIC (Blastomyces dermatitidis; strain 04-2915, >95% growth inhibition, read-out: MIC0 Blastomyces dermatitidis 04-2915): 1 µg/mL (≈ 2.1 µM)
- MIC (Blastomyces dermatitidis; strain 05-106, >95% growth inhibition, read-out: MIC0 Blastomyces dermatitidis 05-106): 0.5 µg/mL (≈ 1.05 µM)
- MIC (Blastomyces dermatitidis; strain 05-186, >95% growth inhibition, read-out: MIC0 Blastomyces dermatitidis 05-186): 0.125 µg/mL (≈ 0.262 µM)
- MIC (Blastomyces dermatitidis; strain 05-1391, >95% growth inhibition, read-out: MIC0 Blastomyces dermatitidis 05-1391): 0.06 µg/mL (≈ 0.126 µM)
- MIC (Blastomyces dermatitidis; strain 05-1707, >95% growth inhibition, read-out: MIC0 Blastomyces dermatitidis 05-1707): ≤ 0.015 µg/mL
- MIC (Blastomyces dermatitidis; strain 05-1820, >95% growth inhibition, read-out: MIC0 Blastomyces dermatitidis 05-1820): 0.125 µg/mL (≈ 0.262 µM)
- MIC (Blastomyces dermatitidis; strain 05-1829, >95% growth inhibition, read-out: MIC0 Blastomyces dermatitidis 05-1829): 0.25 µg/mL (≈ 0.524 µM)
- MIC (Blastomyces dermatitidis; strain 05-2020, >95% growth inhibition, read-out: MIC0 Blastomyces dermatitidis 05-2020): 0.06 µg/mL (≈ 0.126 µM)
- MIC (Blastomyces dermatitidis; strain R-3529, >95% growth inhibition, read-out: MIC0 Blastomyces dermatitidis R-3529): 0.06 µg/mL (≈ 0.126 µM)
- MIC (Fusarium solani; Fusarium solani, read-out: MIC F. solani 96-1): > 32 µg/mL
- MIC (Cryptococcus neoformans; read-out: MIC C. neoformans 97-14): 8 µg/mL (≈ 16.8 µM)
- MIC (Cryptococcus neoformans; read-out: MIC C. neoformans 11239): 4 µg/mL (≈ 8.39 µM)
- MIC (Cryptococcus neoformans; read-out: MIC C. neoformans 11240): 16 µg/mL (≈ 33.6 µM)

Compound: CC[C@H]1O[C@@H](/C(C)=C/[C@H](C)/C=C/[C@H]2[C@@H](C)[C@@H]2/C=C/[C@@H]2O[C@H](CC(=O)O)C[C@H](N(C)CCO)[C@H]2O)CC=C1C [I-n, (5S,6R)-5-(N-(2-hydroxyethyl)-methylamino)-6-hydroxypolyangioic acid]
- MIC C. albicans 24433 (Candida albicans): >32 µg/mL
- MIC C. albicans 90028 (Candida albicans): >32 µg/mL
- MIC0 Tm [1]: 8 µg/mL
- MIC0 Mc (Microsporum canis): 2.82 µg/mL
- MIC0 A. flavus ATCC 204304 (A. flavus ATCC 204304): 2 µg/mL
- MIC0 Ef (Epidermophyton floccosum): 2 µg/mL
- MIC0 A. fumigatus ATCC 204305 (A. fumigatus ATCC 204305): 1.4 µg/mL
- MIC0 Tr (Trichophyton rubrum): 2.51 µg/mL
- MIC S. apiospermum 94-54 (S. apiospermum): >16 µg/mL
- MIC S. apiospermum 98-38 (S. apiospermum): >16 µg/mL
- MIC S. apiospermum 98-89 (S. apiospermum): 0.125 to 0.25 µg/mL
- MIC0 Ti [2]: 1.25 µg/mL
- MIC B. dermatitidis Gu (Blastomyces dermatitidis): 6.25 µg/mL (≈ 11.8 µM)
- MIC B. dermatitidis Kr (Blastomyces dermatitidis): >12.5 µg/mL
- MIC B. dermatitidis V (Blastomyces dermatitidis): >12.5 µg/mL
- MIC F. solani 96-1 (Fusarium solani): >16 µg/mL
- MIC H. capsulatum G217B (Histoplasma capsulatum): <0.19 µg/mL
- MIC H. capsulatum GS20 (Histoplasma capsulatum): <0.19 µg/mL
- MIC C. neoformans 97-14 (Cryptococcus neoformans): 0.25 µg/mL (≈ 0.47 µM)
- MIC C. neoformans 11239 (Cryptococcus neoformans): 0.125 to 0.25 µg/mL
- MIC C. neoformans 11240 (Cryptococcus neoformans): 0.125 to 0.25 µg/mL
- MIC0 Mg (Microsporum gypseum): 1.99 µg/mL
